In the test the test system is BDF1 mice, Lewis lung carcinoma iv, survival T/C. The test can be described thus: NCI In Vivo Anticancer Drug Screen. Data for tumor model Lewis Lung Carcinoma (intravenous) in B6D2F1 (BDF1) mice. The following applies: endpoint: median survival time, higher = longer survival. As to the method:
The antitumor activity of compounds was measured in mice bearing transplantable tumors. Survival or tumor size were measured and the results are expressed as the measurement made in the treated group (T) divided by the measurement made in the vehicle treated control group (C). The tumor model used in this assay is Lewis Lung Carcinoma (intravenous) in B6D2F1 (BDF1) mice

Setting [1] is: dose: 12.5 mg/kg/injection, schedule: Q01DX009 (ip), vehicle: Klucel (hydroxypropylcellulose) (HPC).
[2] abbreviates: dose: 25.0 mg/kg/injection, schedule: Q01DX009 (ip), vehicle: Klucel (hydroxypropylcellulose) (HPC).
Setting [3] is: dose: 0.78 mg/kg/injection, schedule: Q01DX009 (ip), vehicle: saline.
Setting [4] is: dose: 1.56 mg/kg/injection, schedule: Q01DX009 (ip), vehicle: saline.
Where [5] appears, read: dose: 3.12 mg/kg/injection, schedule: Q01DX009 (ip), vehicle: saline.
The mark [6] stands for this setting: dose: 12.5 mg/kg/injection, schedule: Q01DX009 (ip), vehicle: saline.
Where [7] appears, read: dose: 25.0 mg/kg/injection, schedule: Q01DX009 (ip), vehicle: saline.
Where [8] appears, read: dose: 2.0 mg/kg/injection, schedule: Q01DX009 (ip), vehicle: saline.
Where [9] appears, read: dose: 4.0 mg/kg/injection, schedule: Q01DX009 (ip), vehicle: saline.
The mark [10] stands for this setting: dose: 6.25 mg/kg/injection, schedule: Q01DX009 (ip), vehicle: saline.

Values joined by “and” are separate entries in the source; they are usually repeats but may differ in a detail not shown here. Identical values can stand only once. Inconclusive results and toxic doses are left out.

As to `COc1ccc2ccccc2c1C1NC(=O)c2ccccc2N1` (configuration not stated), the T/C reads like this: under setting [1], 90 % of control; under setting [2], 92 % of control; (dose: 50.0 mg/kg/injection, schedule: Q01DX009 (ip), vehicle: Klucel (hydroxypropylcellulose) (HPC)) 92 % of control; (dose: 100.0 mg/kg/injection, schedule: Q01DX009 (ip), vehicle: Klucel (hydroxypropylcellulose) (HPC)) 96 % of control; (dose: 200.0 mg/kg/injection, schedule: Q01DX009 (ip), vehicle: Klucel (hydroxypropylcellulose) (HPC)) 98 % of control; (dose: 400.0 mg/kg/injection, schedule: Q01DX009 (ip), vehicle: Klucel (hydroxypropylcellulose) (HPC)) 102 % of control.
On to `C/C=C/C1=CC(=O)C(O)C1O` (configuration not stated), for which the T/C by setting is: (dose: 25.0 mg/kg/injection, schedule: Q01DX009 (ip), vehicle: water) 103 % of control; (dose: 50.0 mg/kg/injection, schedule: Q01DX009 (ip), vehicle: water) 99 % of control; (dose: 100.0 mg/kg/injection, schedule: Q01DX009 (ip), vehicle: water) 101 % of control.
Consider `CCCCC(=O)OCC(=O)[C@]1(O)Cc2c(O)c3c(c(O)c2[C@@H](OC2CC(NC(=O)C(F)(F)F)C(O)C(C)O2)C1)C(=O)c1c(OC)cccc1C3=O` (some centres not stated), for which the T/C reads like this: (dose: 4.0 mg/kg/injection, schedule: Q01DX009 (ip), vehicle: distilled water + Tween-80) 100 % of control; (dose: 8.0 mg/kg/injection, schedule: Q01DX009 (ip), vehicle: distilled water + Tween-80) 102 % of control; (dose: 16.0 mg/kg/injection, schedule: Q01DX009 (ip), vehicle: distilled water + Tween-80) 121 % of control.
Consider `CSCCC(N)C(=O)O` (configuration not stated), for which the T/C was 101 % of control (dose: 18.75 mg/kg/injection, schedule: Q01DX009 (ip), vehicle: saline with Tween-80); 93 % of control (dose: 37.5 mg/kg/injection, schedule: Q01DX009 (ip), vehicle: saline with Tween-80); 100 % of control (dose: 40.0 mg/kg/injection, schedule: Q01DX009 (ip), vehicle: saline with Tween-80); 101 % of control (dose: 75.0 mg/kg/injection, schedule: Q01DX009 (ip), vehicle: saline with Tween-80); 97 % of control (dose: 80.0 mg/kg/injection, schedule: Q01DX009 (ip), vehicle: saline with Tween-80); 91 % of control (dose: 150.0 mg/kg/injection, schedule: Q01DX009 (ip), vehicle: saline with Tween-80). Besides, the T/C is, setting by setting: (dose: 160.0 mg/kg/injection, schedule: Q01DX009 (ip), vehicle: saline with Tween-80) 95 % of control; (dose: 320.0 mg/kg/injection, schedule: Q01DX009 (ip), vehicle: saline with Tween-80) 100 % of control.
Take `CN(C)C(=O)c1cccc(COc2ccc(N3C(N)=NC(N)=NC3(C)C)cc2Cl)c1`: the T/C runs as follows: (dose: 0.09 mg/kg/injection, schedule: Q01DX009 (ip), vehicle: saline) 95 % of control; (dose: 0.19 mg/kg/injection, schedule: Q01DX009 (ip), vehicle: saline) 108 % of control; (dose: 0.39 mg/kg/injection, schedule: Q01DX009 (ip), vehicle: saline) 95 % of control; under setting [3], 101 % of control; under setting [4], 92 % of control; under setting [5], 118 % of control.
For the molecule `COC1OC(CO)C(O)C(NC(=O)N(C)N=O)C1O` (configuration not stated), the T/C is 109 % of control under setting [6]; 108 % of control and 115 % of control under setting [7]; 123 % of control (dose: 100.0 mg/kg/injection, schedule: Q01DX009 (ip), vehicle: saline); 152 % of control (dose: 200.0 mg/kg/injection, schedule: Q01DX009 (ip), vehicle: saline).
Take `CN(C)CCN1C(=O)c2cccc3cc(N)cc(c23)C1=O`: the T/C by setting is: (dose: 1.0 mg/kg/injection, schedule: Q01DX009 (ip), vehicle: saline with Tween-80) 100 % of control; (dose: 2.0 mg/kg/injection, schedule: Q01DX009 (ip), vehicle: saline with Tween-80) 100 % of control; (dose: 4.0 mg/kg/injection, schedule: Q01DX009 (ip), vehicle: saline with Tween-80) 97 % of control; (dose: 8.0 mg/kg/injection, schedule: Q01DX009 (ip), vehicle: saline with Tween-80) 98 % of control; (dose: 16.0 mg/kg/injection, schedule: Q01DX009 (ip), vehicle: saline with Tween-80) 116 % of control.
For `O=c1[nH]cc(F)c(=O)[nH]1`, the T/C is 106 % of control under setting [8]; 108 % of control (dose: 2.5 mg/kg/injection, schedule: Q01DX009 (ip), vehicle: saline); 110 % of control under setting [9]; 116 % of control (dose: 5.0 mg/kg/injection, schedule: Q01DX009 (ip), vehicle: saline); 96 % of control (2×) and 110 % of control (dose: 7.5 mg/kg/injection, schedule: Q04DX003 (ip), vehicle: saline); 112 % of control (dose: 8.0 mg/kg/injection, schedule: Q01DX009 (ip), vehicle: saline). The T/C is, setting by setting: (dose: 9.8 mg/kg/injection, schedule: Q01DX009 (ip), vehicle: saline) 122 % of control; (dose: 10.0 mg/kg/injection, schedule: Q01DX009 (ip), vehicle: saline) 104 % of control and 109 % of control and 122 % of control; (dose: 13.2 mg/kg/injection, schedule: Q04DX006 (ip), vehicle: saline) 104 % of control; (dose: 14.0 mg/kg/injection, schedule: Q01DX009 (ip), vehicle: saline) 163 % of control; (dose: 14.0 mg/kg/injection, schedule: Q01DX022 (ip), vehicle: saline) 193 % of control; (dose: 15.0 mg/kg/injection, schedule: Q04DX003 (ip), vehicle: saline) 105 % of control and 110 % of control (2×). For the same molecule, the T/C is 107 % of control (dose: 16.0 mg/kg/injection, schedule: Q01DX009 (ip), vehicle: saline); 109 % of control (dose: 28.6 mg/kg/injection, schedule: Q01DX009 (ip), vehicle: saline); 122 % of control (dose: 32.0 mg/kg/injection, schedule: Q01DX009 (ip), vehicle: saline); 109 % of control (dose: 40.9 mg/kg/injection, schedule: Q01DX009 (ip), vehicle: saline); 150 % of control (dose: 60.0 mg/kg/injection, schedule: Q04DX003 (ip), vehicle: saline).
In the case of `[Cl][Sn]([c]1ccccc1)[c]1ccccc1`, the T/C was 104 % of control under setting [5], 97 % of control under setting [10] and 98 % of control under setting [6].
For `CCCCCCCCCCCC(c1ccccc1)[N+](C)(C)C` (configuration not stated), the T/C (dose: 1.0 mg/kg/injection, schedule: Q01DX009 (ip), vehicle: saline) was 96 % of control; the T/C under setting [8] is 105 % of control; the T/C under setting [9] was 101 % of control.
For the molecule `ClCC[Se](Cl)(Cl)c1ccccc1`, the T/C under setting [3] is 98 % of control; the T/C under setting [4] was 109 % of control; the T/C (dose: 3.0 mg/kg/injection, schedule: Q01DX009 (ip), vehicle: saline) was 114 % of control.
Take `COc1cc2c[n+](C)c3c4cc5c(cc4ccc3c2cc1OC)OCO5` (tested in a mixture with another compound): the T/C runs as follows: (dose: 3.13 mg/kg/injection, schedule: Q01DX009 (ip), vehicle: Klucel (hydroxypropylcellulose) (HPC)) 103 % of control; (dose: 6.25 mg/kg/injection, schedule: Q01DX009 (ip), vehicle: Klucel (hydroxypropylcellulose) (HPC)) 184 % of control; under setting [1], 120 % of control; under setting [2], 120 % of control.
Regarding `O=C(O)CC(=O)O.[NH-]CC[NH-].[Pt+2]`, the T/C was 111 % of control under setting [10] and 156 % of control under setting [7].
As to `CC1=C(/C=C/C(C)=C/C=C/C(C)=C/C(=O)O)C(C)(C)CCC1`, the T/C is 92 % of control (dose: 4.0 mg/kg/injection, schedule: Q01DX005 (ip), vehicle: saline with Tween-80); 95 % of control (dose: 8.0 mg/kg/injection, schedule: Q01DX005 (ip), vehicle: saline with Tween-80); 102 % of control (dose: 16.0 mg/kg/injection, schedule: Q01DX005 (ip), vehicle: saline with Tween-80); 91 % of control (dose: 32.0 mg/kg/injection, schedule: Q01DX005 (ip), vehicle: saline with Tween-80); 91 % of control (dose: 128.0 mg/kg/injection, schedule: Q01DX005 (ip), vehicle: saline with Tween-80).

(Values after PubChem BioAssay AID274 (DTP/NCI, 2004).)
